Experimental findings from patent US6893829B2, “Human leukocyte 12-lipoxygenase and its role in the pathogenesis of disease states” (City of Hope, priority 1992, dated 2005) are described below.

For assay [1], the system named is VEGF in vascular smooth muscle cells (VSMC). As to the kind of experiment: VEGF protein, mRNA and secretion in VSMC (Western, Northern, EIA). It is filed as cell-based, Porcine and human. Here is the method: In addition to the work reflected in FIGS. 8-10, it has now been discovered that AII, 12-HETE and hyperglycemia (HG) increase VEGF production in vascular smooth muscle cells (VSMC). Porcine and human VSMC were cultured for at least two passages under normal glucose (NG, 5.5 mM) or under HG conditions. VEGF protein expression was determined by Western blotting and VEGF mRNA by Northern blots. HG alone increased the level of VEGF mRNA (2.8-fold) and protein (3.2-fold). […] In addition, HG increased the secretion of VEGF into the medium as measured by a specific EIA (56.2±4 ng/ml NG vs 73±5 HG, p<0.02).

The subject of assay [2] is JNK. As to the kind of experiment: JNK activity in CHO-AT1a cells. The class given is cell-based, Chinese hamster. Particulars: AII 10^−7M. How it is done: The plasmid pGEX-cJun 1/79 (Dept. Pharmacol. UCSD, La Jolla) is a GST-cJun (1-79) expression vector encoding amino acids (1-79) of cJun. The GST fusion protein expression vector was transformed into E. Coli. Protein was induced with 0.1 mM IPTG and purified by affinity binding to glutathione-agarose beads. Unstimulated or stimulated cells were lysed into WCEB (25 mM HEPES, pH 7.7, 03.M Nacl, 15 mM MgCl2, 02.mM EDTA and 0.1% triton X-100). About 50 μg protein extract was incubated with GST-cJun+GSH agarose overnight at 4° C. Phosphorylation was carried out at 30° C. for 20 minutes in the presence of 20 mM HEPES, pH 7.5, 20 mM b-glycerophosphate, 10 mM p-nitrophenolphosphate, 10 mM MgCl2, 10 mM DDT, 50 μg Na3VO4, 20 μM ATP (cold) and about 0.5 μl of new gamma ^32P-ATP. After boiling with electrophoresis sample buffer, the supernatants were analyzed on 12% SDS-PAGE. JNK activity was also measured by immunoprecipitation method using an anti-JNK antibody (Parmingen Co., San Diego) and then activities were measured using 2 μg of GST-cJun (1-79) as substrate as described in Cell, 81:1147-1157 (1995).
It has been discovered that the administration of AII results in biphasic activation of MAP kinase (all of the MAP kinase experiments were conducted in CHO-AT1a cells—AII receptor AT1a cDNA transfected Chinese hamster ovary cells).

Assay [3] relates to 12-LO activity in HSMC. In words: 12-HETE release and cell-associated 12-HETE in HSMC (HPLC/RIA). The class given is cell-based, human. How it is done:
FIG. 3A illustrates the effect of AII on 12-HETE release by HSMC. HSMC were grown to confluency. Serum was removed and cells were incubated in media 199 containing 0.4% fetal bovine serum (FBS) and 0.2% BSA for 18 hours. Cells were then washed with DME media and incubated for 20 minutes in DME media containing 0.2% BSA. AII was added to the cells for five and ten minutes at the concentrations of 10^−9 and 10^−8 mol/L. Media were collected for HETE assay. • *p<0.05 vs control n=4
FIG. 3B illustrates the effect of AII on cell-associated 12-HETE levels in HSMC. After collecting supernatants, cells were washed with ice-cold PBS and harvested by scraping for the assay of cell-associated HETEs. • *p<0.02 vs control n=4
HSMC and HAEC monolayers were washed twice with ice-cold PBS and then processed for RNA extraction or western analysis as described below. For hydroxyeicosatetraenoic acid (HETE) assay, approximately 24 hours prior to an experiment, the medium was replaced with medium 199 containing 0.4% FBS and 0.2% BSA.
These assays were performed using previously published methods (10,11). Briefly, 12- and 15-HETE are extracted from supernatants and cells on C18 mini columns (Analytichem International, CA) and measured using our validated reverse phase gradient HPLC and (RIA) methods.
Another major aspect of this invention is the discovery that AII increases the activity and expression of 12-LO mRNA and protein in HSMC.

Where [4] appears, read: AII 10^−7M, 4 hours, cells cultured in HG.

For “Angiotensin II (DRVYIHPF; Angiotensin-2; UniProt P01019 25-32, looked up) [AII, peptide hormone, added to cells as stimulus]”, the “increase in VEGF secretion (EIA)” value in assay [1] is 1.24 fold. Further, the “VEGF mRNA expression increase” value in assay [1] (setting [4]) worked out at 1.4 fold. For the same substance, in assay [1] (setting [4]), the “VEGF protein expression increase” value is 2.2 fold. For the same substance, in assay [2], the “stimulation of JNK activity” value is “peaks at 30 minutes and remains sustained for 1 hour”. In addition, the “release of 12-HETE” value in assay [3] (AII 10^−8M, 5 minute incubation, serum free media, control 599±105) is reported as 1467±277 pg per mg of protein; in assay [3] (AII 10^−8 mol/L, ten minute incubation) it was “significantly simulated the release of 12-HETE”; in assay [3] (AII 10^−9 mol/L, 5 minute incubation, serum free media, control 599±105) it was 1296±262 pg per mg of protein. Besides, the “cell-associated 12-HETE levels” value in assay [3] (HSMC, FIG. 3B) is “significantly also increased”.
